Data published in ChEMBL document CHEMBL1201862, “PubChem BioAssay data set” (2004).
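These data come from cells grown in 96-well plates and exposed to compound for 48 hours at five concentrations. GI50: concentration for 50% inhibition of growth.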 Activity calls are given as the source filed them. No stated cut-off is given here; in the data, active = GI50 up to about 1.1 µM and inactive = higher.

Tests used:
Assay in all cases: DTP human tumour cell line panel, 48 h
MDA-N = test system: MDA-N
MDA-MB-435 = test system: MDA-MB-435
A498 = test system: A498
NCI-H460 = test system: NCI-H460
LOX IMVI = test system: LOX IMVI
HCC 2998 = test system: HCC 2998
NCI-H23 = test system: NCI-H23
UACC-62 = test system: UACC-62
OVCAR-4 = test system: OVCAR-4
SK-MEL-28 = test system: SK-MEL-28
UACC-257 = test system: UACC-257
SNB-75 = test system: SNB-75
HL-60 = test system: HL-60
NCI-H226 = test system: NCI-H226
HCT-15 = test system: HCT-15
NCI-H522 = test system: NCI-H522
SF-268 = test system: SF-268
DU-145 = test system: DU-145
SW-620 = test system: SW-620
T47D = test system: T47D
CCRF-CEM = test system: CCRF-CEM
SK-MEL-5 = test system: SK-MEL-5
SK-MEL-2 = test system: SK-MEL-2
MOLT-4 = test system: MOLT-4
HOP-92 = test system: HOP-92
KM12 = test system: KM12
RPMI-8226 = test system: RPMI-8226
IGROV-1 = test system: IGROV-1
OVCAR-5 = test system: OVCAR-5
Hs-578T = test system: Hs-578T
U-251 = test system: U-251
SF-539 = test system: SF-539
SK-OV-3 = test system: SK-OV-3
COLO 205 = test system: COLO 205
OVCAR-3 = test system: OVCAR-3
SNB-19 = test system: SNB-19
HCT-116 = test system: HCT-116
NCI/ADR-RES = test system: NCI/ADR-RES
Malme-3M = test system: Malme-3M
OVCAR-8 = test system: OVCAR-8
A549 = test system: A549
K562 = test system: K562
HT-29 = test system: HT-29
HOP-62 = test system: HOP-62
CAKI-1 = test system: CAKI-1
M14 = test system: M14
SN12C = test system: SN12C
SR = test system: SR
MCF7 = test system: MCF7
PC-3 = test system: PC-3
786-0 = test system: 786-0
SF-295 = test system: SF-295
ACHN = test system: ACHN
TK-10 = test system: TK-10
MDA-MB-231 = test system: MDA-MB-231
BT-549 = test system: BT-549
EKVX = test system: EKVX
UO-31 = test system: UO-31
RXF 393 = test system: RXF 393

In the case of Cn1c2ccc(Cl)cc2c2ccc3c(c21)C(=O)C=CC3=O, the GI50 (MDA-N) is reported as > 10 µM (inactive), the GI50 (MDA-MB-435) is reported as > 10 µM (inactive) and the GI50 (A498) is reported as > 10 µM (inactive). The GI50 (NCI-H460) was > 10 µM (inactive), the GI50 (LOX IMVI) was > 10 µM (inactive) and the GI50 (HCC 2998) was > 10 µM (inactive). The GI50 (NCI-H23) was > 10 µM (inactive), the GI50 (UACC-62) was > 10 µM (inactive) and the GI50 (OVCAR-4) was > 10 µM (inactive). For the same compound, the GI50 (SK-MEL-28) was > 10 µM (inactive), the GI50 (UACC-257) was > 10 µM (inactive) and the GI50 (SNB-75) was > 10 µM (inactive). The GI50 (HL-60) was 8.49 µM (inactive), the GI50 (NCI-H226) was > 10 µM (inactive) and the GI50 (HCT-15) was over 10 µM. The GI50 (NCI-H522) was > 10 µM (inactive), the GI50 (SF-268) was > 10 µM (inactive) and the GI50 (DU-145) was > 10 µM (inactive). For the same compound, the GI50 (SW-620) was > 10 µM (inactive), the GI50 (T47D) was > 10 µM (inactive) and the GI50 (CCRF-CEM) was 3.88 µM (inactive). The GI50 (SK-MEL-5) was > 10 µM (inactive), the GI50 (SK-MEL-2) was > 10 µM (inactive) and the GI50 (MOLT-4) was 6.44 µM (inactive). The GI50 (HOP-92) was > 10 µM (inactive), the GI50 (KM12) was > 10 µM (inactive) and the GI50 (RPMI-8226) was > 10 µM (inactive). The GI50 (IGROV-1) was > 10 µM (inactive), the GI50 (OVCAR-5) was > 10 µM (inactive) and the GI50 (Hs-578T) was > 10 µM (inactive). The GI50 (U-251) was > 10 µM (inactive), the GI50 (SF-539) was > 10 µM (inactive) and the GI50 (SK-OV-3) was > 10 µM (inactive). The GI50 (COLO 205) was > 10 µM (inactive), the GI50 (OVCAR-3) was > 10 µM (inactive) and the GI50 (SNB-19) was > 10 µM (inactive). The GI50 (HCT-116) was > 10 µM (inactive), the GI50 (NCI/ADR-RES) was > 10 µM (inactive) and the GI50 (Malme-3M) was > 10 µM (inactive). For the same compound, the GI50 (OVCAR-8) was > 10 µM (inactive), the GI50 (A549) was > 10 µM (inactive) and the GI50 (K562) was 9.14 µM (inactive). For the same compound, the GI50 (HT-29) was > 10 µM (inactive), the GI50 (HOP-62) was > 10 µM (inactive) and the GI50 (CAKI-1) was > 10 µM (inactive). The GI50 (M14) was > 10 µM (inactive), the GI50 (SN12C) was > 10 µM (inactive) and the GI50 (SR) was > 10 µM (inactive). The GI50 (MCF7) was > 10 µM (inactive), the GI50 (PC-3) was > 10 µM (inactive) and the GI50 (786-0) was > 10 µM (inactive). The GI50 (SF-295) was > 10 µM (inactive), the GI50 (ACHN) was > 10 µM (inactive) and the GI50 (TK-10) was > 10 µM (inactive). The GI50 (MDA-MB-231) was > 10 µM (inactive), the GI50 (BT-549) was > 10 µM (inactive) and the GI50 (EKVX) was > 10 µM (inactive).

In the case of Nc1c(Cl)cc(-c2nc3ccccc3s2)cc1Cl, the GI50 (MDA-N) is reported as > 100 µM (inactive), the GI50 (MDA-MB-435) is reported as > 100 µM (inactive) and the GI50 (A498) is reported as 0.288 µM (active). The GI50 (NCI-H460) was 0.556 µM (active), the GI50 (UO-31) was > 100 µM (inactive) and the GI50 (HCC 2998) was > 100 µM (inactive). For the same compound, the GI50 (UACC-62) was > 100 µM (inactive), the GI50 (SK-MEL-28) was > 100 µM (inactive) and the GI50 (UACC-257) was > 100 µM (inactive). The GI50 (SNB-75) was > 100 µM (inactive), the GI50 (HL-60) was > 100 µM (inactive) and the GI50 (NCI-H226) was > 100 µM (inactive). For the same compound, the GI50 (HCT-15) was over 100 µM, the GI50 (NCI-H522) was > 100 µM (inactive) and the GI50 (SF-268) was > 100 µM (inactive). For the same compound, the GI50 (DU-145) was > 100 µM (inactive), the GI50 (SW-620) was > 100 µM (inactive) and the GI50 (T47D) was 4.16 µM (inactive). The GI50 (CCRF-CEM) was > 100 µM (inactive), the GI50 (SK-MEL-5) was > 100 µM (inactive) and the GI50 (SK-MEL-2) was > 100 µM (inactive). The GI50 (MOLT-4) was > 100 µM (inactive), the GI50 (HOP-92) was > 100 µM (inactive) and the GI50 (KM12) was > 100 µM (inactive). The GI50 (IGROV-1) was 0.328 µM (active), the GI50 (Hs-578T) was > 100 µM (inactive) and the GI50 (U-251) was > 100 µM (inactive). For the same compound, the GI50 (SF-539) was > 100 µM (inactive), the GI50 (SK-OV-3) was > 100 µM (inactive) and the GI50 (COLO 205) was > 100 µM (inactive). For the same compound, the GI50 (OVCAR-3) was > 100 µM (inactive), the GI50 (SNB-19) was > 100 µM (inactive) and the GI50 (RXF 393) was > 100 µM (inactive). The GI50 (HCT-116) was > 100 µM (inactive), the GI50 (NCI/ADR-RES) was > 100 µM (inactive) and the GI50 (Malme-3M) was > 100 µM (inactive). The GI50 (OVCAR-8) was > 100 µM (inactive), the GI50 (A549) was > 100 µM (inactive) and the GI50 (K562) was > 100 µM (inactive). The GI50 (HT-29) was > 100 µM (inactive), the GI50 (HOP-62) was > 100 µM (inactive) and the GI50 (M14) was > 100 µM (inactive). For the same compound, the GI50 (SN12C) was > 100 µM (inactive), the GI50 (SR) was > 100 µM (inactive) and the GI50 (MCF7) was 0.522 µM (active). For the same compound, the GI50 (PC-3) was > 100 µM (inactive), the GI50 (786-0) was 22.6 µM (inactive) and the GI50 (SF-295) was > 100 µM (inactive). For the same compound, the GI50 (ACHN) was > 100 µM (inactive), the GI50 (TK-10) was 0.501 µM (active) and the GI50 (MDA-MB-231) was 69 µM (inactive). For the same compound, the GI50 (BT-549) was > 100 µM (inactive) and the GI50 (EKVX) was > 100 µM (inactive).
